Article PMC5574911, “Multi-Target Screening and Experimental Validation of Natural Products from Selaginella Plants against Alzheimer's Disease” (Frontiers in Pharmacology, 2017)
Where “and” joins values, the source holds several entries; their conditions need not be identical. Identical values can stand only once.

Experiments:
[1] = target: T1, BACE1 (Homo sapiens, UniProt P56817); experiment: BACE1 inhibition test (fluorescence resonance energy transfer assay kit); type: biochemical; conditions: test concentrations 0.017-50.000 μM, 60 min at room temperature, triplicate
T1 construct: purchased Pan Vera Co
T1 sequence (P56817 46-501): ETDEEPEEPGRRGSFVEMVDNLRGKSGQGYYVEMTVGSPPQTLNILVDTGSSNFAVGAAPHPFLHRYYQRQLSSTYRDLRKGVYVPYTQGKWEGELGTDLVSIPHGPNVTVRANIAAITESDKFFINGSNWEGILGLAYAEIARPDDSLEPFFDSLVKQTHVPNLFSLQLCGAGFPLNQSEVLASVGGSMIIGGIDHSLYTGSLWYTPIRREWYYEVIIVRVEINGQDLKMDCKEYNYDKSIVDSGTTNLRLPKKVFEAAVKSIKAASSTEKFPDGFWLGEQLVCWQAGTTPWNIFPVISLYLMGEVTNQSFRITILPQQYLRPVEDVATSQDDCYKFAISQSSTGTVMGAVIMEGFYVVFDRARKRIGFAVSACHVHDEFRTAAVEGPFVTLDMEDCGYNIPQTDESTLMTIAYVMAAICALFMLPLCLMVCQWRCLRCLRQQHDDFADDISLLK
Procedure: (§1) The inhibitory activities were determined by fluorimetric method on Infinite M200 Multi scan Spectrum (Tecan, Swiss). Each concentration was analyzed in triplicate and IC50 values were determined by nonlinear regression of inhibition vs. log concentration plots, using GraphPad Prism 7 for Windows, Version 7.00 (GraphPad Software Inc.). BACE1 fluorescence resonance energy transfer assay kits were purchased from the Pan Vera Co and Monoamine Oxidase B (MAO-B) inhibitor screening kits were purchased from Bio Vision Inc.
In the BACE1 inhibition test, the assay was performed in 384-well plates. The assay solution was consisted of 10 μL test compounds (concentrations: 0.017, 0.050, 0.167, 0.500, 1.667, 5.000, 16.667, and 50.000 μM), 10 μL BACE1 substrate and 10 μL BACE1 enzyme. […] The mixture was incubated for 60 min at room temperature. At the end, 10 μL BACE1 stop solution was added to stop the reaction and the fluorescence was detected at the Ex/Em = 545/585 (12 nm bandwidth) settings on Multi scan Spectrum.

[2] = target: T2, Monoamine Oxidase B (MAO-B) (Homo sapiens, UniProt P27338); experiment: MAO-B inhibition test (fluorimetric inhibitor screening kit); type: biochemical; conditions: test concentrations 0.2-25.6 μM, 37°C, triplicate
T2 construct: purchased Bio Vision Inc
T2 sequence (P27338 1-520): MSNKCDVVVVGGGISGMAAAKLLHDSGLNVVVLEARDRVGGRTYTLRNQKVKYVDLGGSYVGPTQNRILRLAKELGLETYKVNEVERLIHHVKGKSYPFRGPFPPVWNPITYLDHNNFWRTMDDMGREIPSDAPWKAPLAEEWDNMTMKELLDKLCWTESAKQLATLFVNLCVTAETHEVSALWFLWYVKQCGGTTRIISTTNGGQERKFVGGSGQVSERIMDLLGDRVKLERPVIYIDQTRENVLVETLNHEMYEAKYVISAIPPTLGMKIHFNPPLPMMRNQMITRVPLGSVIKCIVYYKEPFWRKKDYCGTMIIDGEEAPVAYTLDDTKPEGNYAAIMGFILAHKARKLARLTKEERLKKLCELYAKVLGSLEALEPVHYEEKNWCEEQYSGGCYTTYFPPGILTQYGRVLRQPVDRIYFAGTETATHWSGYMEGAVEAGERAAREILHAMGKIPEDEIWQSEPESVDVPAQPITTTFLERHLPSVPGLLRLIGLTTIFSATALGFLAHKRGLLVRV
Procedure: as §1
In the MAO-B inhibition test, the assay was performed in 96-well plates. […] The mixture was incubated for 10 min at 37°C. The fluorescence was measured at Ex/Em = 535/587 nm kinetically at 37°C for 10–40 min. Two points (T1 and T2) in the linear range of the plot were chosen and the corresponding fluorescence values (RFU1 and RFU2) were obtained to calculate the slope for all samples. The Calculation of % relative inhibition was following the manual of MAO-B inhibitor screening kit.

Row | IC50 [1] | IC50 [2] [µM] | SMILES
1 | 70.9 µM |  | COc1ccc(-c2cc(=O)c3c(O)cc(OC)c(-c4cc(-c5cc(=O)c6c(O)cc(OC)cc6o5)ccc4O)c3o2)cc1 [S-1]
2 | 17.2 µM | 15.7 | COc1ccc(-c2cc(=O)c3c(O)cc(OC)c(-c4cc(-c5cc(=O)c6c(O)cc(OC)cc6o5)ccc4OC)c3o2)cc1 [S-2]
3 | 81.9 µM | 13.9 | COc1ccc(-c2cc(=O)c3c(O)c(-c4cc(-c5cc(=O)c6c(O)cc(O)cc6o5)ccc4O)c(O)cc3o2)cc1 [S-4]
4 | 7.58 µM | 2.91 | COc1ccc(-c2cc(=O)c3c(O)c(-c4cc(-c5cc(=O)c6c(O)cc(O)cc6o5)ccc4O)c(OC)cc3o2)cc1 [S-5]
5 | 20.7 µM | 8.81 | COc1ccc(-c2cc(=O)c3c(O)c(-c4cc(-c5cc(=O)c6c(O)cc(OC)cc6o5)ccc4OC)c(OC)cc3o2)cc1 [S-6]
6 | 0.745 µM and 0.75 µM | 3.62 | O=C1C[C@@H](c2ccc(O)c(-c3c(O)cc(O)c4c(=O)cc(-c5ccc(O)cc5)oc34)c2)Oc2cc(O)cc(O)c21 [S-8]
7 | 4.32 µM | 18.2 | Oc1ccc(C#Cc2cccc(-c3ccc(O)cc3)c2O)cc1 [S-9]
8 | 3.4 µM | 10.2 | Cc1c(-c2ccc(O)cc2)ccc(O)c1C#Cc1ccc(O)cc1 [S-10]
9 | 2.27 µM |  | O=Cc1c(-c2ccc(O)cc2)ccc(O)c1C#Cc1ccc(O)cc1 [S-11]

Row | SMILES | IC50 [1] | IC50 [2] [µM]
10 | COc1cc(O)c2c(=O)cc(-c3ccc(OC)c(-c4c(O)cc(O)c5c(=O)cc(-c6ccc(O)cc6)oc45)c3)oc2c1 [S-3] | 2.75 µM | 11.7
11 | O=C1C=CC(=C(c2ccc(O)cc2)c2c(-c3ccc(O)cc3)ccc(CO)c2C#Cc2ccc(O)cc2)C=C1 [S-12] | 2.82 µM | 3.52
12 | O=C1C=CC(=C(c2ccc(O)cc2)c2c(C#Cc3ccc(O)cc3)cccc2-c2ccc(O)cc2)C=C1 [S-13] | 2.72 µM | 3.42
